In US9254308B2, “Kits and methods for the treatment of cancer using gliadin peptides” (BARMARSA RESEARCH LLC, priority 2013, dated 2016):
Where no end group is shown, it is not given here.

Columns and labels:
A549 cells [1] = assay: Cell count, A549 cells, cisplatin 72-hour treatment; type: cell-based, human; details: A549, 72 h
Procedure: All experiments were conducted in triplicate.

A549 cells [2] = assay: Cell count, A549 cells, 14-day treatment regimen; type: cell-based, human; details: A549, 14 days; 3.3 μM cisplatin
Procedure: All treatments were conducted in triplicate. […] Media was refreshed with the respective treatments every 72 hours.

A549 cells [3] = assay: TUNEL apoptosis assay, A549 cells; type: cell-based, human; details: A549, 72 h, 1 μM gefitinib alone
Procedure: The ability of alpha-gliadin p31-43 to induce apoptosis in cancer cells was assessed. […] Cells were grown in the presence of 5% CO2 at 37° C. in an incubator.
Briefly, A549 cells (1×10^5) were plated in chamber slides and allowed to adhere overnight. […] After the 72-hour treatment, the cells were fixed with 4% formaldehyde in PBS (pH 7.4) for 25 minutes at room temperature, then washed twice for 5 minutes in PBS, permeabilized in 0.2% Triton X-100 solution in PBS for 5 minutes at room temperature, and finally washed twice for 5 minutes in PBS. Apoptosis was measured using the DeadEnd™ Colorimetric TUNEL System (Promega, Madison, Wis.) according to the manufacturer's instructions. At the end of the assay, the cells were mounted and observed under the microscope.

[4] = test system: A549 human lung cancer xenograft; assay: A549 human lung cancer xenograft model, tumor volume; type: in vivo, nude mice; details: alone or with 200 μg gliadin i.v.; for Mean Tumor Volume: 150 mg/kg gefitinib by gavage once daily 14 days
Source text: Six-week old female nude mice (Harlan Laboratories, Indianapolis, Ind.) were quarantined for 3 days and housed 5 mice per cage, with a 12-hour light-dark cycle, and a relative humidity of 50%. Drinking water and diet were supplied to the animals ad libitum. All animals were housed under pathogen-free conditions. […] The animals were monitored for two weeks following the 14-day treatment period. Tumor measurements were initiated as soon as the tumor formed a palpable mass and measured twice weekly.

NSCLC = details: Caucasian NSCLC patients; Gottschling 2012; cited from earlier work
A549 NSCLC cells = assay: MTT growth inhibition, A549 cells, 72-hour treatment
Procedure: (§1) Cells were kept at 37° C. in a humidified atmosphere of 5% CO2 and grown until they reached a confluency of 90%. Cells were then washed, trypsinized, and counted using a Coulter counter.
A549 NSCLC cells were maintained and cultured as described above. […] Cells were plated at a density of 10,000 cells/well in 24-well cell culture plates and allowed to adhere for 24 hours. […] All experiments were conducted in sextuplicate. […] Following 72 hours of treatment, growth inhibition was evaluated by the 3-(4,5-dimethylthiazol-2-yl)-2,5-diphenyltetrazolium bromide (MTT) assay (Roche Diagnostics Corporation, Indianapolis, Ind.) according to the manufacturer's instructions. The absorbance at 570 nm was measured using a plate reader (BioTek, Winooski, Vt.).

[5] = test system: PANC-1 pancreatic carcinoma cells; assay: MTT growth inhibition, PANC-1 cells, 72-hour treatment; details: for Mean absorbance (570 nm): PANC-1, 72 h, 1 μg/mL gefitinib or erlotinib alone
Procedure: as §1
(§2) Cells were plated at a density of 10,000 cells/well in 24-well cell culture plates and allowed to adhere for 24 hours. […] All experiments were conducted in sextuplicate. […] Following 72 hours of treatment, growth inhibition was evaluated by the MTT assay according to the manufacturer's instructions. The absorbance at 570 nm was measured using a plate reader.

[6] = test system: NCI-H1975 NSCLC cells (EGFR L858R, T790M); assay: MTT growth inhibition, NCI-H1975 cells, 72-hour treatment
Procedure: as §1, §2

[7] = test system: PANC-1 human pancreatic carcinoma cells; assay: Cell count, PANC-1 cells, 5-FU 72-hour treatment; type: cell-based; details: PANC-1, 72 h
PANC-1 cells = assay: Cell count, PANC-1 cells, 14-day treatment regimen; type: cell-based, human
Procedure: All treatments were conducted in triplicate. […] Media was refreshed with the respective treatments every 72 hours. After 14 days of treatment, cells were trypsinized and counted.

[8] = test system: 5-FU-resistant PANC-1 cells; assay: Cell count, surviving 5-FU-resistant PANC-1 cells, 7-day gliadin treatment; type: cell-based, human; details: 100 μg/mL or 200 μg/mL for 7 additional days
Procedure: In order to examine the effects of alpha-gliadin peptide p31-43 on PANC-1 cells exposed to 5-FU for an extended period of time (14 days), an experiment was conducted on the surviving, i.e., resistant, cell population (4%) from the previous experiment. Briefly, after counting viable cells on day 14 of treatment, surviving cells were replated at a density of 5,000 cells per well. The following day, cells were treated with vehicle or 100 μg/mL or 200 μg/mL of alpha-gliadin peptide p31-43. Media containing the respective treatments was refreshed on day 3 and 6. On day 7, cells were trypsinized and counted.

[9] = Toxicity in BALB/c mice (body weight, behavior, deaths); type: in vivo; details: female BALB/c mice
Procedure: The toxicity of alpha-gliadin peptide p31-43 in animals was evaluated. Five- to six-week old female BALB/c mice were dosed with vehicle (100 μL DMSO/saline) administered subcutaneously once a day for five days (Group 1) or 200 μg of alpha-gliadin peptide p31-43 in vehicle administered subcutaneously once a day for five days (Group 2). To prepare the gliadin solution, 70 μL of sterile DMSO was added to 1 mg of alpha-gliadin peptide p31-43 and vortexed to dissolve the peptide. After the peptide was dissolved, 430 μL of sterile 0.9% sodium chloride was added and vortexed to create a 1000 μg/500 μL solution of alpha-gliadin peptide p31-43.
Toxicity was evaluated using daily weight measurements and behavior assessments. […] At the end of the study, the mean body weights (±SE) were 19.8±0.4 grams for Group 1 (n=5) and 20.0±0.3 grams for Group 2 (n=5). […] Alpha-gliadin peptide p31-43 was therefore tolerated at a dosing level of 10 mg/kg/day without apparent toxicity.

[10] = 200 μg subcutaneously once a day for five days

N.N.[Cl][Pt][Cl] [cisplatin]
% Inhibition (A549 cells [1]; cisplatin 0.103 μM): 13.5% | Mean Cell (A549 cells [1]; cisplatin 0.103 μM): 166,883 | % Inhibition (A549 cells [1]; cisplatin 0.207 μM): 21.8% | Mean Cell (A549 cells [1]; cisplatin 0.207 μM): 150,917 | % Inhibition (A549 cells [1]; cisplatin 0.413 μM): 42.0% | Mean Cell (A549 cells [1]; cisplatin 0.413 μM): 111,917 | % Inhibition (A549 cells [1]; cisplatin 0.825 μM): 74.9% | Mean Cell (A549 cells [1]; cisplatin 0.825 μM): 48,400 | % Inhibition (A549 cells [1]; cisplatin 1.650 μM): 91.6% | Mean Cell (A549 cells [1]; cisplatin 1.650 μM): 16,117 | % Inhibition (A549 cells [1]; cisplatin 3.300 μM): 94.8% | Mean Cell (A549 cells [1]; cisplatin 3.300 μM): 10,033 | % Inhibition (A549 cells [2]): 98% | Mean Cell Number/mL (A549 cells [2]): 5,780 /mL

COc1cc2ncnc(Nc3ccc(F)c(Cl)c3)c2cc1OCCCN1CCOCC1 [gefitinib]
Mean % apoptotic (A549 cells [3]): 19% | tumor doubling time ([4]; A549 xenograft, 150 mg/kg gefitinib): 24.48 days | Mean Tumor Volume ([4]; Study Day 4 (dosing period)): 47.74 ± 2.87 mm^3 | Mean Tumor Volume ([4]; Study Day 7 (dosing period)): 51.67 ± 5.69 mm^3 | Mean Tumor Volume ([4]; Study Day 11 (dosing period)): 49.30 ± 3.77 mm^3 | Mean Tumor Volume ([4]; Study Day 14 (dosing period)): 60.43 ± 5.35 mm^3 | Mean Tumor Volume ([4]; Study Day 18 (recovery period)): 75.40 ± 9.05 mm^3 | Mean Tumor Volume ([4]; Study Day 21 (recovery period)): 95.22 ± 11.15 mm^3 | Mean Tumor Volume ([4]; Study Day 25 (recovery period)): 157.69 ± 14.76 mm^3 | Mean Tumor Volume ([4]; Study Day 28 (recovery period, termination), 150 mg/kg): 239.25±32.78 mm^3 | patients exhibiting significant changes in disease progression following therapy (NSCLC): about 10% | Mean absorbance (570 nm) (A549 NSCLC cells): 1.35 | Mean absorbance (570 nm) [5]: 2.11

C#Cc1cccc(Nc2ncnc3cc(OCCOC)c(OCCOC)cc23)c1 [erlotinib]
patients exhibiting significant changes in disease progression following therapy (NSCLC): about 10% | % Inhibition (A549 NSCLC cells): 3.4% | Mean absorbance (570 nm) (A549 NSCLC cells): 1.44 | % Inhibition [5]: 0% | Mean absorbance (570 nm) [5]: 1.98 | Mean absorbance (570 nm) [6]: 1.73

O=c1[nH]cc(F)c(=O)[nH]1 [5-FU, 5-Fluorouracil]
inhibition at 6.25 µM ([7]; Homo sapiens, 5-FU 6.25 μM): 63.3% | inhibition at 12.5 µM ([7]; Homo sapiens, 5-FU 12.5 μM): 63% | inhibition at 25 µM ([7]; Homo sapiens, 5-FU 25.0 μM): 62.8% | inhibition at 50 µM ([7]; Homo sapiens, 5-FU 50.0 μM): 63% | inhibition at 100 µM ([7]; Homo sapiens, 5-FU 100.0 μM): 68.5% | inhibition at 200 µM ([7]; Homo sapiens, 5-FU 200.0 μM): 73.6% | inhibition at 400 µM ([7]; Homo sapiens, 5-FU 400.0 μM): 79.2% | Mean Cell Number/mL ([7]; 5-FU 6.25 μM): 116,500 /mL | Mean Cell Number/mL ([7]; 5-FU 12.5 μM): 117,500 /mL | Mean Cell Number/mL ([7]; 5-FU 25.0 μM): 118,200 /mL | Mean Cell Number/mL ([7]; 5-FU 50.0 μM): 100,200 /mL | Mean Cell Number/mL ([7]; 5-FU 100.0 μM): 117,600 /mL | Mean Cell Number/mL ([7]; 5-FU 200.0 μM): 83,900 /mL | Mean Cell Number/mL ([7]; 5-FU 400.0 μM): 66,200 /mL | inhibition at 6.25 µM (PANC-1 cells; Homo sapiens, 336 h, PANC-1, 14 days, 6.25 μM 5-FU): 96% | Mean Cell Number/mL (PANC-1 cells; PANC-1, 14 days, 6.25 μM 5-FU): 33,233 /mL | surviving 5-FU-resistant population remaining viable, of the initial population (PANC-1 cells; PANC-1, following 14-day 5-FU treatment): 4%

LGQQQPFPPQQPY [gliadin, alpha-gliadin peptide p31-43]
cell proliferation of surviving 5-FU-treated PANC-1 cells [8]: cell proliferation was significantly suppressed | behavior changes compared to control mice [9, 10]: No behavior changes were observed | treatment-related deaths [9, 10]: no treatment-related deaths | mean body weight (±SE) at the end of the study ([9]; 200 μg subcutaneously once a day for five days, n=5): 20.0±0.3 grams | NOAEL at 120 h ([9]; mouse, in vivo, sc, 200 ug, subcutaneously, five days, read-out: dosing level tolerated without apparent toxicity): 10 mg/kg/day
